pIC50: −log10 of the molar value. Converted amounts (≈) assume the structure as drawn. The source made the active and inactive calls. The rule behind the calls is not given here.
Experiments:
Mus musculus [1] = experiment: In vivo inhibition of GSK3 beta in SAMP8 mouse assessed as reduction in tau phosphorylation at Ser 404 residue at 2 mg/kg, po measured after 4 weeks by western blot analysis; type: functional, organism-based
Mus musculus [2] = experiment: Effect on amyloid pathology in hippocampal tissue of SAMP8 mouse assessed as increase in neprilysin (Nep) gene expression at 2 mg/kg, po measured after 4 weeks by RT-PCR analysis; type: functional, organism-based
Mus musculus [3] = experiment: Effect on amyloid pathology in hippocampal tissue of SAMP8 mouse assessed as increase in insulin-degrading enzyme (Ide) gene expression at 2 mg/kg, po measured after 4 weeks by RT-PCR analysis; type: functional, organism-based
Mus musculus [4] = experiment: Effect on amyloid pathology in hippocampal tissue of SAMP8 mouse assessed as decrease in Bace-1 gene expression at 2 mg/kg, po measured after 4 weeks by RT-PCR analysis; type: functional, organism-based
Mus musculus [5] = experiment: Effect on amyloid pathology in hippocampal tissue of SAMP8 mouse assessed as increase in Adam10 gene expression at 2 mg/kg, po measured after 4 weeks by RT-PCR analysis; type: functional, organism-based
Mus musculus [6] = experiment: In vivo inhibition of BACE-1 in hippocampal tissue of SAMP8 mouse assessed as increase in sAPP alpha levels at 2 mg/kg, po measured after 4 weeks by western blot analysis; type: functional, organism-based; details: Hippocampus
Beta-secretase 1 = Beta-secretase 1 (Homo sapiens, UniProt P56817); experiment: Inhibition of human recombinant BACE-1 expressed in Escherichia coli using panvera peptide as a substrate incubated for 1 hr by fluorescence analysis
Chain of Beta-secretase 1 (P56817 whole entry): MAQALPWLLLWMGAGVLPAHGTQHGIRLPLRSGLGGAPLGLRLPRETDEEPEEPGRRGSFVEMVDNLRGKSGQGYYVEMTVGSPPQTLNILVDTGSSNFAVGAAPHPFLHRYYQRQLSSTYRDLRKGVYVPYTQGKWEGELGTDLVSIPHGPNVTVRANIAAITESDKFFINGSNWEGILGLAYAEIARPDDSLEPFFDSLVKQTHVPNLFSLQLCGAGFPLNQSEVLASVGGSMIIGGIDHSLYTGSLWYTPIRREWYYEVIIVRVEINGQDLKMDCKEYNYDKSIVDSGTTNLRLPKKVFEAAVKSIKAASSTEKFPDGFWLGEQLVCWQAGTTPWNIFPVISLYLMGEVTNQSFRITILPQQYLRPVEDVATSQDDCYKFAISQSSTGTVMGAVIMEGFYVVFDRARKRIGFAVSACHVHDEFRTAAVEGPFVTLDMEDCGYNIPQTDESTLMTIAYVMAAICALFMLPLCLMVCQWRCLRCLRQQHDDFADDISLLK

Acetylcholinesterase [7] = biological target: T1, Acetylcholinesterase (Homo sapiens, UniProt P22303); experiment: Potency index, ratio of rhein-huprine hybrid IC50 to test compound IC50 for inhibition of human recombinant AChE using acetylthiocholine iodide as a substrate preincubated for 20 mins followed by substrate addition by spectrophotometric analysis
T1 sequence (P22303 whole entry): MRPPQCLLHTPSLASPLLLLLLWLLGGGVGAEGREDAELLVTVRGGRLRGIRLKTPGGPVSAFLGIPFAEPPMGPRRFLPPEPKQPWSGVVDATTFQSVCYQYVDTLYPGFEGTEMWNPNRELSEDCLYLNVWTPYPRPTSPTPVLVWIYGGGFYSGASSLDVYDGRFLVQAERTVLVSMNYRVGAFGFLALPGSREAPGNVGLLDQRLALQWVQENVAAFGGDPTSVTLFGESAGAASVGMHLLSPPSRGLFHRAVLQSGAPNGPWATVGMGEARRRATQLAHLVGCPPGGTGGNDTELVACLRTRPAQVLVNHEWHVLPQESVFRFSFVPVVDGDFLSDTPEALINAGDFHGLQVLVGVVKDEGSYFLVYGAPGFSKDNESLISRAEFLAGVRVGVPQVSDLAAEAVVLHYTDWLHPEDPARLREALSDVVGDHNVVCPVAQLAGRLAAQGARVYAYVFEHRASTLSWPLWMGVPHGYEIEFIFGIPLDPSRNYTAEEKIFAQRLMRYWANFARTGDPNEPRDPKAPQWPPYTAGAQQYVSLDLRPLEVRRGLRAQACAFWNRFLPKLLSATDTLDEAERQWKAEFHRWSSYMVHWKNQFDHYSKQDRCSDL

Acetylcholinesterase [8] = biological target: T1, Acetylcholinesterase; experiment: Potency index, ratio of donepezil IC50 to test compound IC50 for inhibition of human recombinant AChE using acetylthiocholine iodide as a substrate preincubated for 20 mins followed by substrate addition by spectrophotometric analysis
Cholinesterase [9] = biological target: T2, Cholinesterase (Homo sapiens, UniProt P06276); experiment: Potency index, ratio of rhein-huprine hybrid IC50 to test compound IC50 for inhibition of human serum BChE using butyrylthiocholine iodide as a substrate preincubated for 20 mins followed by substrate addition by spectrophotometric analysis; type: cell-free
T2 sequence (P06276 whole entry): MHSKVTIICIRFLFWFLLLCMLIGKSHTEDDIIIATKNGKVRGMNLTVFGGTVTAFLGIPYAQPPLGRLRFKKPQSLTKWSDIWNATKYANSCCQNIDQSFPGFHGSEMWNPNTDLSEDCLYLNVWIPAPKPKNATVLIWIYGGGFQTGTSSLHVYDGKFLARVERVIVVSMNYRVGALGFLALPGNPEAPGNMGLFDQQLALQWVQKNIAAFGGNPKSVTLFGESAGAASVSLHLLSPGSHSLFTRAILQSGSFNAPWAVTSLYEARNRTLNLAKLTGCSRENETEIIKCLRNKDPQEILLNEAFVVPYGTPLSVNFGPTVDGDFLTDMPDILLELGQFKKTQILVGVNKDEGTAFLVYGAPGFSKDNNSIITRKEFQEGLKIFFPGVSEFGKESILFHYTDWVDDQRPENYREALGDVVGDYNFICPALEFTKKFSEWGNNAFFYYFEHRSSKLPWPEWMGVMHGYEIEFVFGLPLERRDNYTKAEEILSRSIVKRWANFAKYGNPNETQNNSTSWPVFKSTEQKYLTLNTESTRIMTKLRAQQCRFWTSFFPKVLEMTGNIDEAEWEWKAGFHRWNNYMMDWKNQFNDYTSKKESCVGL

Cholinesterase [10] = biological target: T2, Cholinesterase; experiment: Potency index, ratio of huprine-Y IC50 to test compound IC50 for inhibition of human serum BChE using butyrylthiocholine iodide as a substrate preincubated for 20 mins followed by substrate addition by spectrophotometric analysis; type: cell-free
Cholinesterase [11] = biological target: T2, Cholinesterase; experiment: Potency index, ratio of donepezil IC50 to test compound IC50 for inhibition of human serum BChE using butyrylthiocholine iodide as a substrate preincubated for 20 mins followed by substrate addition by spectrophotometric analysis; type: cell-free
[12] = biological target: Amyloid-beta precursor protein (Homo sapiens) (UniProt P05067); experiment: Inhibition of amyloid beta (1 to 42) (unknown origin) aggregation in Escherichia coli BL21 (DE3) at 10 uM incubated overnight by thioflavin S based fluorescence analysis relative to control
Chain of Amyloid-beta precursor protein (Homo sapiens) (P05067 whole entry): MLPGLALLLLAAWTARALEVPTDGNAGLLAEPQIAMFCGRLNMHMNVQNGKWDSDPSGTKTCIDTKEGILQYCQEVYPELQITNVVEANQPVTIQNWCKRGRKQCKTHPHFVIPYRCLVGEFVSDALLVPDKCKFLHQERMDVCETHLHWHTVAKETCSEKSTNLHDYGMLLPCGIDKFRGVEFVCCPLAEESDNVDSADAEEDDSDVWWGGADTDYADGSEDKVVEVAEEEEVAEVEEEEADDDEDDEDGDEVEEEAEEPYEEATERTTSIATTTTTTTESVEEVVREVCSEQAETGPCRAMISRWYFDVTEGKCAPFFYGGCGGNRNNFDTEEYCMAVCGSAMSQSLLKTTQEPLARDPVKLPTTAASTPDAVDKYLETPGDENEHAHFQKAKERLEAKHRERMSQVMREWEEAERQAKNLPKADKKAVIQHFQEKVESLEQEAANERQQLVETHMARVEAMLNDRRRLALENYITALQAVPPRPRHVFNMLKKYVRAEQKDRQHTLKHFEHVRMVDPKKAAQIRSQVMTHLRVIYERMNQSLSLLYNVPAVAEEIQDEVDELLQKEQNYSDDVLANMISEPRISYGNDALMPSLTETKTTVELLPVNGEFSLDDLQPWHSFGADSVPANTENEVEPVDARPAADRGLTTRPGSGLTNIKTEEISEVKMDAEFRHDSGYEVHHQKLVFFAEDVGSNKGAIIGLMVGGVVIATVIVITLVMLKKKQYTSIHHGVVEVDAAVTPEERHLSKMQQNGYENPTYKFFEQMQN

[13] = biological target: Microtubule-associated protein tau (Homo sapiens) (UniProt P10636); experiment: Inhibition of tau aggregation (unknown origin) in Escherichia coli BL21 (DE3) at 10 uM incubated overnight by thioflavin S based fluorescence analysis relative to control
Chain of Microtubule-associated protein tau (Homo sapiens) (P10636 whole entry): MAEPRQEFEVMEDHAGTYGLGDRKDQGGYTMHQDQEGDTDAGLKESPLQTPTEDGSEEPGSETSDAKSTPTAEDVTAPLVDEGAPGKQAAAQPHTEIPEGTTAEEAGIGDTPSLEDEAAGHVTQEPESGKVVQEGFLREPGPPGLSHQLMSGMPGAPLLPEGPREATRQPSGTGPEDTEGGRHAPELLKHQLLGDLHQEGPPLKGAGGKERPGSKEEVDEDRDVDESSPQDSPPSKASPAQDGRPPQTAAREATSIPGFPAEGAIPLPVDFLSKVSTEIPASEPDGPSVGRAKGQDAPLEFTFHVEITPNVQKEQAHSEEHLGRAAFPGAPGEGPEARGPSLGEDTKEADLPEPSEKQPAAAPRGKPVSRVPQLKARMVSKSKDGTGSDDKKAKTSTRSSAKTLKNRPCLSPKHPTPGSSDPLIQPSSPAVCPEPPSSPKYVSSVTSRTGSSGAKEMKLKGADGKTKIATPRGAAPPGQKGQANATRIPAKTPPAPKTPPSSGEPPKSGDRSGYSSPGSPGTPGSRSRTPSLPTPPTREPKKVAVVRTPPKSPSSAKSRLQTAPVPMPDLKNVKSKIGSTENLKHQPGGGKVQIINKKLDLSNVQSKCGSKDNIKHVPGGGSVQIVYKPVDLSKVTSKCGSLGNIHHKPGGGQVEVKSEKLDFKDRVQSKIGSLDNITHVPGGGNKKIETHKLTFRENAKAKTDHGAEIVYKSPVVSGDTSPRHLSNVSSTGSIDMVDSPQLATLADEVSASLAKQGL

[14] = Antioxidant activity assessed as free radical scavenging activity at 500 uM incubated for 30 mins under dark condition by DPPH assay; type: functional
HT-22 = experiment: Neuroprotective activity against glutamate induced neuronal death in mouse HT-22 cells assessed as increase in cell viability at 1 to 25 uM by MTT assay; type: functional, cell-based; details: dose 1-25 µM
[15] = Neurotoxicity in mouse HT-22 cells assessed as decrease in cell viability at up to 25 uM by MTT assay; type: cell-based
[16] = Acute toxicity in zebra fish embryos assessed as lethality measured every 24 hrs for 72 hrs; design: species or system Danio rerio; details: zebrafish
[17] = Permeability of the compound in PBS/EtOH by PAMPA-BBB assay; type: ADME; details: read-out: permeability
[18] = Kinetic solubility of the compound in DMSO/PBS buffer measured after 2 hrs by nephalometric analysis; type: physicochemical; details: DMSO/PBS buffer, read-out: Kinetic_solubility
[19] = Toxicity in SAMP8 mouse assessed as mortality at 2 mg/kg, po for 4 weeks; type: organism-based; details: in vivo, 672 h
[20] = Toxicity in SAMP8 mouse assessed as toxic effects at 2 mg/kg, po for 4 weeks; type: organism-based; details: in vivo, 672 h
Mus musculus [21] = experiment: Cognitive enhancing effect in SAMP8 mouse assessed as improvement of short term retrieval by measuring discrimination index at 2 mg/kg, po administered for 4 weeks followed by 10 mins acquisition trail and measured after 2 hrs by novel object recognition test; type: functional, organism-based
Mus musculus [22] = experiment: Cognitive enhancing effect in SAMP8 mouse assessed as improvement of long term retrieval by measuring discrimination index at 2 mg/kg, po administered for 4 weeks followed by 10 mins acquisition trail and measured after 24 hrs by novel object recognition test; type: functional, organism-based
Mus musculus [23] = experiment: Cognitive enhancing effect in SAMP8 mouse assessed as reversal of spatial memory impairment by measuring discrimination index at 2 mg/kg, po administered for 4 weeks by object location test; type: functional, organism-based
Mus musculus [24] = experiment: In vivo inhibition of BACE-1 in hippocampal tissue of SAMP8 mouse assessed as reduction in sAPPbeta levels at 2 mg/kg, po measured after 4 weeks by Western blot analysis; type: functional, organism-based; details: Hippocampus
Mus musculus [25] = experiment: Modulation of oxidative stress in SAMP8 mouse assessed as increase in heme oxygenase 1 (Hmox1) gene expression in hippocampus tissue at 2 mg/kg, po measured after 4 weeks by RT-PCR analysis; type: functional, organism-based
Mus musculus [26] = experiment: Modulation of oxidative stress in SAMP8 mouse assessed as increase in cox-2 gene expression in hippocampus tissue at 2 mg/kg, po measured after 4 weeks by RT-PCR analysis; type: functional, organism-based
Mus musculus [27] = experiment: Effect on neuroinflammation in SAMP8 mouse assessed as decrease in IL-1 beta gene expression hippocampus tissue at 2 mg/kg, po measured after 4 weeks by RT-PCR analysis; type: functional, organism-based
Mus musculus [28] = experiment: Effect on neuroinflammation in SAMP8 mouse assessed as decrease in IL-6 gene expression hippocampus tissue at 2 mg/kg, po measured after 4 weeks by RT-PCR analysis; type: functional, organism-based
Mus musculus [29] = experiment: Effect on neuroinflammation in SAMP8 mouse assessed as decrease in TNF-alpha gene expression hippocampus tissue at 2 mg/kg, po measured after 4 weeks by RT-PCR analysis; type: functional, organism-based
Mus musculus [30] = experiment: Effect on neuroinflammation in SAMP8 mouse assessed as reduction in Cxcl10 gene expression hippocampus tissue at 2 mg/kg, po measured after 4 weeks by RT-PCR analysis; type: functional, organism-based
Mus musculus [31] = experiment: Effect on synaptic plasticity in SAMP8 mouse assessed as increase in PSD95 protein levels in hippocampus tissue at 2 mg/kg, po measured after 4 weeks by western blot analysis; type: functional, organism-based
Mus musculus [32] = experiment: Effect on synaptic plasticity in SAMP8 mouse assessed as increase in SYN protein levels in hippocampus tissue at 2 mg/kg, po measured after 4 weeks by western blot analysis; type: functional, organism-based
Acetylcholinesterase [33] = biological target: T1, Acetylcholinesterase
Description: Inhibition of human recombinant AChE using acetylthiocholine iodide as a substrate preincubated for 20 mins followed by substrate addition by spectrophotometric analysis

Cholinesterase [34] = biological target: T2, Cholinesterase
Description: Inhibition of human serum BChE using butyrylthiocholine iodide as a substrate preincubated for 20 mins followed by substrate addition by spectrophotometric analysis

In the case of CC1=CC2Cc3nc4cc(Cl)ccc4c(NCCCCCCCCCNC(=O)c4cc(O)cc(O)c4)c3C(C1)C2 (stereo unspecified), the inhibition (Mus musculus [1]) was “Active”, the Activity (Mus musculus [2]) was “Active” and the Activity (Mus musculus [3]) was “inactive”. For the same molecule, the Activity (Mus musculus [4]) was “Active”, the Activity (Mus musculus [5]) was “Active” and the Activity (Mus musculus [6]) was “Active”. It also gave a pIC50 (Beta-secretase 1) of 5.57, a Ratio IC50 (Acetylcholinesterase [7]) of under 9 and a Ratio IC50 (Acetylcholinesterase [8]) of under 65. It also gave a Ratio IC50 (Cholinesterase [9]) of 7, a Ratio IC50 (Cholinesterase [10]) of 2 and a Ratio IC50 (Cholinesterase [11]) of 79. For the same molecule, the inhibition [12] was 49.5%, the inhibition [13] was 65.8% and the Activity [14] was “inactive”. The Activity (HT-22) was “inactive”, the Activity [15] was “Non-Toxic” and the LC50 at 72 h [16] was over 100000 nM. The Papp [17] was 9.4 ×10⁻⁶ cm/s, the solubility kinetic at 2 h [18] was 10.8 µg/mL (≈ 19.2 µM) and the Activity [19] was “Non-Toxic”. The Activity [20] was “Non-Toxic”, the Activity (Mus musculus [21]) was “Active” and the Activity (Mus musculus [22]) was “Active”. For the same molecule, the Activity (Mus musculus [23]) was “Active”, the Activity (Mus musculus [24]) was “Active” and the Activity (Mus musculus [25]) was “Active”. For the same molecule, the Activity (Mus musculus [26]) was “inactive”, the Activity (Mus musculus [27]) was “Active” and the Activity (Mus musculus [28]) was “Active”. For the same molecule, the Activity (Mus musculus [29]) was “Active”, the Activity (Mus musculus [30]) was “Active” and the Activity (Mus musculus [31]) was “Active”. The Activity (Mus musculus [32]) was “Active”, the pIC50 (Acetylcholinesterase [33]) was 8.59 and the pIC50 (Cholinesterase [34]) was 7.37.
